Measured values taken from PubChem BioAssay AID1963841 (Molecular Pharmacology Branch, DTP, NCI, 2024).

Test system: 439559-082-T-J2-PDC spheroid viability
Assay: Anticancer human tumor 439559-082-T-J2-PDC patient-derived colon adenocarcinoma cell line growth inhibition [POLQ]
Conditions: spheroids with HUVEC and MSC; for IC50: curve of first compound; for viability, T/C: stronger effect = lower value
How it was run: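 Complex spheroid viability model combining PDC tumour cells with endothelial (HUVEC) and MSC stromal cells. Novobiocin, ART-558 or RP6685 were tested singly and in combination with standard and investigational anticancer drugs. Each was titrated in half-log steps from near clinical Cmax, or from 10 microM where Cmax was unknown.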
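Note: spheroids exposed to compounds for seven days before readout.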
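Throughout, for viability, T/C: 100% = DMSO vehicle control viability.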

SMILES: CC(=O)O[C@H]1C(=O)[C@@]2(C)[C@H]([C@H](OC(=O)c3ccccc3)[C@]3(O)C[C@H](OC(=O)[C@H](O)[C@@H](NC(=O)c4ccccc4)c4ccccc4)C(C)=C1C3(C)C)[C@]1(OC(C)=O)CO[C@@H]1C[C@@H]2O + Cc1cccc(N(C)C(=O)C2C(O)CCN2c2nc(C)cc(C(F)(F)F)c2C#N)c1
- IC50 (second compound 0.0316 µM): 2190 nM
- IC50 (second compound 0.1 µM): 1780 nM
- IC50 (second compound 0.316 µM): 1900 nM
- IC50 (second compound 1 µM): 1710 nM
- IC50 (second compound 3.16 µM): 1430 nM
- IC50 (second compound 10 µM): 469 nM
- viability, T/C (second compound 0.0316 µM, first compound 0.00949 µM): 77.2%
- viability, T/C (second compound 0.0316 µM, first compound 0.03 µM): 78.5%
- viability, T/C (second compound 0.0316 µM, first compound 0.0949 µM): 84.2%
- viability, T/C (second compound 0.0316 µM, first compound 0.3 µM): 81.3%
- viability, T/C (second compound 0.0316 µM, first compound 0.949 µM): 70.5%
- viability, T/C (second compound 0.0316 µM, first compound 3 µM): 41.5%
- viability, T/C (second compound 0.1 µM, first compound 0.00949 µM): 81.9%
- viability, T/C (second compound 0.1 µM, first compound 0.03 µM): 84.4%
- viability, T/C (second compound 0.1 µM, first compound 0.0949 µM): 77.4%
- viability, T/C (second compound 0.1 µM, first compound 0.3 µM): 72.7%
- viability, T/C (second compound 0.1 µM, first compound 0.949 µM): 66.4%
- viability, T/C (second compound 0.1 µM, first compound 3 µM): 37.8%
- viability, T/C (second compound 0.316 µM, first compound 0.00949 µM): 85.4%
- viability, T/C (second compound 0.316 µM, first compound 0.03 µM): 86.6%
- viability, T/C (second compound 0.316 µM, first compound 0.0949 µM): 78.5%
- viability, T/C (second compound 0.316 µM, first compound 0.3 µM): 74.6%
- viability, T/C (second compound 0.316 µM, first compound 0.949 µM): 61%
- viability, T/C (second compound 0.316 µM, first compound 3 µM): 42.6%
- viability, T/C (second compound 1 µM, first compound 0.00949 µM): 92%
- viability, T/C (second compound 1 µM, first compound 0.03 µM): 82%
- viability, T/C (second compound 1 µM, first compound 0.0949 µM): 79.4%
- viability, T/C (second compound 1 µM, first compound 0.3 µM): 75.2%
- viability, T/C (second compound 1 µM, first compound 0.949 µM): 65.2%
- viability, T/C (second compound 1 µM, first compound 3 µM): 36.9%
- viability, T/C (second compound 3.16 µM, first compound 0.00949 µM): 77.1%
- viability, T/C (second compound 3.16 µM, first compound 0.03 µM): 71.5%
- viability, T/C (second compound 3.16 µM, first compound 0.0949 µM): 74.1%
- viability, T/C (second compound 3.16 µM, first compound 0.3 µM): 70.4%
- viability, T/C (second compound 3.16 µM, first compound 0.949 µM): 55%
- viability, T/C (second compound 3.16 µM, first compound 3 µM): 37.4%
- viability, T/C (second compound 10 µM, first compound 0.00949 µM): 85.1%
- viability, T/C (second compound 10 µM, first compound 0.03 µM): 74.2%
- viability, T/C (second compound 10 µM, first compound 0.0949 µM): 74.4%
- viability, T/C (second compound 10 µM, first compound 0.3 µM): 51.9%
- viability, T/C (second compound 10 µM, first compound 0.949 µM): 44.4%
- viability, T/C (second compound 10 µM, first compound 3 µM): 36.8%

SMILES: COc1cc(C2c3cc4c(cc3C(OC3OC5COC(C)OC5C(O)C3O)C3COC(=O)C23)OCO4)cc(OC)c1O (centres undefined) + Nc1ccc(C#CCN(C(=O)Cc2ncc(C(F)(F)F)cc2C(F)(F)F)c2ccc(F)cc2)nn1
- IC50 (second compound 0.0316 µM): > 10000 nM
- IC50 (second compound 0.1 µM): > 10000 nM
- IC50 (second compound 0.316 µM): > 10000 nM
- IC50 (second compound 1 µM): > 10000 nM
- IC50 (second compound 3.16 µM): > 10000 nM
- IC50 (second compound 10 µM): > 10000 nM
- viability, T/C (second compound 0.0316 µM, first compound 0.0316 µM): 89.8%
- viability, T/C (second compound 0.0316 µM, first compound 0.1 µM): 110%
- viability, T/C (second compound 0.0316 µM, first compound 0.316 µM): 85.5%
- viability, T/C (second compound 0.0316 µM, first compound 1 µM): 79.4%
- viability, T/C (second compound 0.0316 µM, first compound 3.16 µM): 68%
- viability, T/C (second compound 0.0316 µM, first compound 10 µM): 71.3%
- viability, T/C (second compound 0.1 µM, first compound 0.0316 µM): 86.2%
- viability, T/C (second compound 0.1 µM, first compound 0.1 µM): 94.3%
- viability, T/C (second compound 0.1 µM, first compound 0.316 µM): 84.2%
- viability, T/C (second compound 0.1 µM, first compound 1 µM): 85.5%
- viability, T/C (second compound 0.1 µM, first compound 3.16 µM): 86.8%
- viability, T/C (second compound 0.1 µM, first compound 10 µM): 81.7%
- viability, T/C (second compound 0.316 µM, first compound 0.0316 µM): 99.5%
- viability, T/C (second compound 0.316 µM, first compound 0.1 µM): 106%
- viability, T/C (second compound 0.316 µM, first compound 0.316 µM): 93.2%
- viability, T/C (second compound 0.316 µM, first compound 1 µM): 84.1%
- viability, T/C (second compound 0.316 µM, first compound 3.16 µM): 80.6%
- viability, T/C (second compound 0.316 µM, first compound 10 µM): 88%
- viability, T/C (second compound 1 µM, first compound 0.0316 µM): 104%
- viability, T/C (second compound 1 µM, first compound 0.1 µM): 93.5%
- viability, T/C (second compound 1 µM, first compound 0.316 µM): 92.6%
- viability, T/C (second compound 1 µM, first compound 1 µM): 91.5%
- viability, T/C (second compound 1 µM, first compound 3.16 µM): 88.7%
- viability, T/C (second compound 1 µM, first compound 10 µM): 70.6%
- viability, T/C (second compound 3.16 µM, first compound 0.0316 µM): 101%
- viability, T/C (second compound 3.16 µM, first compound 0.1 µM): 109%
- viability, T/C (second compound 3.16 µM, first compound 0.316 µM): 78.9%
- viability, T/C (second compound 3.16 µM, first compound 1 µM): 84.8%
- viability, T/C (second compound 3.16 µM, first compound 3.16 µM): 76%
- viability, T/C (second compound 3.16 µM, first compound 10 µM): 75.9%
- viability, T/C (second compound 10 µM, first compound 0.0316 µM): 97.5%
- viability, T/C (second compound 10 µM, first compound 0.1 µM): 84.4%
- viability, T/C (second compound 10 µM, first compound 0.316 µM): 77.6%
- viability, T/C (second compound 10 µM, first compound 1 µM): 86.2%
- viability, T/C (second compound 10 µM, first compound 3.16 µM): 80%
- viability, T/C (second compound 10 µM, first compound 10 µM): 70%
